# Measured values taken from the supplement of paper PMC10307832.
# How the values were obtained:
# Assay in all cases: relative viability (nuclei count vs DMSO), 5 days (fraction); higher = more cells survive
# LU99A = system: LU99A
# Outline: (§1)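 Dosing by pin tool came one day after lung cancer cell lines were seeded in 1536-well plates, using either one drug or a fixed anchor-drug dose plus five library-drug doses (not always all listed) in √10 steps. After 5 days, nuclei were counted on 4× images. Relative viability is treated-well nuclei count divided by vehicle-well nuclei count, and values are medians of duplicate plates.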
# CAL-12T = system: CAL-12T
# Outline: as §1
# HCC-366 = system: HCC-366
# Outline: as §1
# ABC-1 = system: ABC-1
# Outline: as §1
# NCI-H2405 = system: NCI-H2405
# Outline: as §1
# HCC-78 = system: HCC-78
# Outline: as §1
# EPLC-272H = system: EPLC-272H
# Outline: as §1
# ChaGo-K-1 = system: ChaGo-K-1
# Outline: as §1
# NCI-H1944 = system: NCI-H1944
# Outline: as §1
# LC-2-ad = system: LC-2-ad
# Outline: as §1
# PC-3 [JPC-3] = system: PC-3 [JPC-3]
# Outline: as §1
# NCI-H2087 = system: NCI-H2087
# Outline: as §1
# NCI-H1793 = system: NCI-H1793
# Outline: as §1
# NCI-H1734 = system: NCI-H1734
# Outline: as §1
# RERF-LC-KJ = system: RERF-LC-KJ
# Outline: as §1
# NCI-H3122 = system: NCI-H3122
# Outline: as §1
# LOU-NH91 = system: LOU-NH91
# Outline: as §1
# UMC-11 = system: UMC-11
# Outline: as §1
# NCI-H460 = system: NCI-H460
# Outline: as §1
# NCI-H1395 = system: NCI-H1395
# Outline: as §1
# NCI-H1755 = system: NCI-H1755
# Outline: as §1
# NCI-H2170 = system: NCI-H2170
# Outline: as §1
# NCI-H2228 = system: NCI-H2228
# Outline: as §1
# NCI-H1651 = system: NCI-H1651
# Outline: as §1
structure (smiles),measurement,setting,value
Clc1ccc(Nc2nnc(Cc3ccncc3)c3ccccc23)cc1 [Vatalanib] + Cc1nc(Nc2ncc(C(=O)Nc3c(C)cccc3Cl)s2)cc(N2CCN(CCO)CC2)n1 [Dasatinib] (partner 0.075 µM),relative viability,LU99A; first compound 0.04 µM,0.499
same,relative viability,LU99A; first compound 0.1265 µM,0.58
same,relative viability,LU99A; first compound 0.4 µM,0.685
same,relative viability,LU99A; first compound 1.265 µM,0.44
same,relative viability,LU99A; first compound 4 µM,0.583
same,relative viability,CAL-12T; first compound 0.04 µM,0.526
same,relative viability,CAL-12T; first compound 0.1265 µM,0.351
same,relative viability,CAL-12T; first compound 0.4 µM,0.464
same,relative viability,CAL-12T; first compound 1.265 µM,0.28
same,relative viability,CAL-12T; first compound 4 µM,0.374
same,relative viability,HCC-366; first compound 0.04 µM,0.829
same,relative viability,HCC-366; first compound 0.1265 µM,0.573
same,relative viability,HCC-366; first compound 0.4 µM,0.618
same,relative viability,HCC-366; first compound 1.265 µM,0.586
same,relative viability,HCC-366; first compound 4 µM,0.503
same,relative viability,ABC-1; first compound 0.04 µM,0.722
same,relative viability,ABC-1; first compound 1.265 µM,0.514
same,relative viability,ABC-1; first compound 4 µM,0.581
same,relative viability,NCI-H2405; first compound 0.04 µM,0.226
same,relative viability,NCI-H2405; first compound 0.1265 µM,0.195
same,relative viability,NCI-H2405; first compound 1.265 µM,0.197
same,relative viability,NCI-H2405; first compound 4 µM,0.203
same,relative viability,HCC-78; first compound 0.04 µM,0.368
same,relative viability,HCC-78; first compound 0.1265 µM,0.325
same,relative viability,HCC-78; first compound 0.4 µM,0.333
same,relative viability,HCC-78; first compound 1.265 µM,0.368
same,relative viability,HCC-78; first compound 4 µM,0.383
same,relative viability,EPLC-272H; first compound 0.04 µM,0.441
same,relative viability,EPLC-272H; first compound 0.1265 µM,0.347
same,relative viability,EPLC-272H; first compound 0.4 µM,0.449
same,relative viability,EPLC-272H; first compound 1.265 µM,0.36
same,relative viability,EPLC-272H; first compound 4 µM,0.481
same,relative viability,ChaGo-K-1; first compound 0.04 µM,0.578
same,relative viability,ChaGo-K-1; first compound 0.1265 µM,0.541
same,relative viability,ChaGo-K-1; first compound 0.4 µM,0.582
same,relative viability,ChaGo-K-1; first compound 1.265 µM,0.569
same,relative viability,ChaGo-K-1; first compound 4 µM,0.586
same,relative viability,NCI-H1944; first compound 0.04 µM,0.227
same,relative viability,NCI-H1944; first compound 0.1265 µM,0.228
same,relative viability,NCI-H1944; first compound 0.4 µM,0.254
same,relative viability,NCI-H1944; first compound 1.265 µM,0.23
same,relative viability,NCI-H1944; first compound 4 µM,0.228
same,relative viability,LC-2-ad; first compound 0.04 µM,0.739
same,relative viability,LC-2-ad; first compound 0.1265 µM,0.492
same,relative viability,LC-2-ad; first compound 1.265 µM,0.507
same,relative viability,LC-2-ad; first compound 4 µM,0.536
same,relative viability,PC-3 [JPC-3]; first compound 0.04 µM,0.949
same,relative viability,PC-3 [JPC-3]; first compound 0.1265 µM,0.982
same,relative viability,PC-3 [JPC-3]; first compound 0.4 µM,0.951
same,relative viability,PC-3 [JPC-3]; first compound 1.265 µM,0.913
same,relative viability,PC-3 [JPC-3]; first compound 4 µM,0.891
same,relative viability,NCI-H2087; first compound 0.04 µM,0.937
same,relative viability,NCI-H2087; first compound 0.1265 µM,0.769
same,relative viability,NCI-H2087; first compound 0.4 µM,1.09
same,relative viability,NCI-H2087; first compound 1.265 µM,0.808
same,relative viability,NCI-H2087; first compound 4 µM,0.884
same,relative viability,NCI-H1793; first compound 0.04 µM,0.379
same,relative viability,NCI-H1793; first compound 0.1265 µM,0.377
same,relative viability,NCI-H1793; first compound 0.4 µM,0.458
same,relative viability,NCI-H1793; first compound 1.265 µM,0.349
same,relative viability,NCI-H1793; first compound 4 µM,0.4
same,relative viability,NCI-H1734; first compound 0.04 µM,0.512
same,relative viability,NCI-H1734; first compound 0.1265 µM,0.432
same,relative viability,NCI-H1734; first compound 0.4 µM,0.501
same,relative viability,NCI-H1734; first compound 1.265 µM,0.47
same,relative viability,NCI-H1734; first compound 4 µM,0.422
same,relative viability,RERF-LC-KJ; first compound 0.04 µM,0.851
same,relative viability,RERF-LC-KJ; first compound 0.1265 µM,0.828
same,relative viability,RERF-LC-KJ; first compound 0.4 µM,0.809
same,relative viability,RERF-LC-KJ; first compound 1.265 µM,0.623
same,relative viability,RERF-LC-KJ; first compound 4 µM,0.593
same,relative viability,NCI-H3122; first compound 0.04 µM,0.986
same,relative viability,NCI-H3122; first compound 0.1265 µM,0.838
same,relative viability,NCI-H3122; first compound 0.4 µM,0.795
same,relative viability,NCI-H3122; first compound 1.265 µM,0.768
same,relative viability,NCI-H3122; first compound 4 µM,0.787
same,relative viability,LOU-NH91; first compound 0.04 µM,0.563
same,relative viability,LOU-NH91; first compound 0.1265 µM,0.534
same,relative viability,LOU-NH91; first compound 1.265 µM,0.514
same,relative viability,LOU-NH91; first compound 4 µM,0.509
same,relative viability,UMC-11; first compound 0.04 µM,0.422
same,relative viability,UMC-11; first compound 0.1265 µM,0.496
same,relative viability,UMC-11; first compound 0.4 µM,0.444
same,relative viability,UMC-11; first compound 1.265 µM,0.442
same,relative viability,UMC-11; first compound 4 µM,0.45
same,relative viability,NCI-H460; first compound 0.04 µM,0.558
same,relative viability,NCI-H460; first compound 0.1265 µM,0.498
same,relative viability,NCI-H460; first compound 0.4 µM,0.54
same,relative viability,NCI-H460; first compound 1.265 µM,0.351
same,relative viability,NCI-H460; first compound 4 µM,0.409
same,relative viability,NCI-H1395; first compound 0.04 µM,0.456
same,relative viability,NCI-H1395; first compound 0.1265 µM,0.392
same,relative viability,NCI-H1395; first compound 0.4 µM,0.384
same,relative viability,NCI-H1395; first compound 1.265 µM,0.389
same,relative viability,NCI-H1395; first compound 4 µM,0.407
same,relative viability,NCI-H1755; first compound 0.04 µM,0.496
same,relative viability,NCI-H1755; first compound 0.1265 µM,0.418
same,relative viability,NCI-H1755; first compound 0.4 µM,0.514
same,relative viability,NCI-H1755; first compound 1.265 µM,0.413
same,relative viability,NCI-H1755; first compound 4 µM,0.381
same,relative viability,NCI-H2170; first compound 0.04 µM,0.521
same,relative viability,NCI-H2170; first compound 0.1265 µM,0.486
same,relative viability,NCI-H2170; first compound 0.4 µM,0.556
same,relative viability,NCI-H2170; first compound 1.265 µM,0.483
same,relative viability,NCI-H2170; first compound 4 µM,0.507
same,relative viability,NCI-H2228; first compound 0.04 µM,0.494
same,relative viability,NCI-H2228; first compound 0.1265 µM,0.483
same,relative viability,NCI-H2228; first compound 0.4 µM,0.595
same,relative viability,NCI-H2228; first compound 1.265 µM,0.482
same,relative viability,NCI-H2228; first compound 4 µM,0.447
same,relative viability,NCI-H1651; first compound 0.04 µM,0.317
same,relative viability,NCI-H1651; first compound 0.1265 µM,0.31
same,relative viability,NCI-H1651; first compound 0.4 µM,0.421
same,relative viability,NCI-H1651; first compound 1.265 µM,0.462
same,relative viability,NCI-H1651; first compound 4 µM,0.372
